Test results from patent publication US10058550B2, “Methods of treating heart failure” (priority 2015, dated 2018).

Biological target: human APJ receptor (Homo sapiens (Human), UniProt P35414)
Assay: biochemical
Type: biochemical
Details: read-out: Activity hAPJ SPA EC50 IP
Method in brief: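 Agonist-stimulated [35S]GTPγS (0.2 nM) binding was read by SPA after 90 min at room temperature. Buffer: 20 mM HEPES pH 7.5 with 5 mM MgCl2, 200 mM NaCl, 3 μM GDP, 0.1% BSA; membranes were from a stable human APJ CHO line. EC50 values are averages of independent runs, fitted by non-linear regression.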

human APJ receptor, sequence (P35414 whole entry): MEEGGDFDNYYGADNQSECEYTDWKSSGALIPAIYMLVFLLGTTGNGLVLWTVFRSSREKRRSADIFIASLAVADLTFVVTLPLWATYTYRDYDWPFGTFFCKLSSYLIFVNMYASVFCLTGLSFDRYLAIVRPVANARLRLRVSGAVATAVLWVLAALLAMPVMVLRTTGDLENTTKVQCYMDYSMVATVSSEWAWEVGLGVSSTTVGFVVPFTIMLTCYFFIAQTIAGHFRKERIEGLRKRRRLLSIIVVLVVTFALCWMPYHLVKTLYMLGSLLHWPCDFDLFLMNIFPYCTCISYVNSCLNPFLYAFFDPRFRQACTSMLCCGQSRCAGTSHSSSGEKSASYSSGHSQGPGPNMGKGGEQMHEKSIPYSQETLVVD

SMILES | EC50 [nM]
COc1cccc(-c2nnc(NS(=O)(=O)[C@@H](C)[C@H](C)c3ncc(Cl)cn3)n2-c2c(OC)ncnc2OC)n1 [Example 710.0, (2S,3R)-3-(5-chloro-2-pyrimidinyl)-N-(4-(4,6-dimethoxy-5-pyrimidinyl)-5-(6-methoxy-2-pyridinyl)-4H-1,2,4-triazol-3-yl)-2-butanesulfonamide] | 0.21
COc1cccc(OC)c1-n1c(NS(=O)(=O)[C@@H](C)[C@@H](OC(C)C)c2ncc(C)cn2)nnc1-c1cccc(C)n1 [Example 738.0, (1S,2S)-N-(4-(2,6-dimethoxyphenyl)-5-(6-methylpyridin-2-yl)-4H-1,2,4-triazol-3-yl)-1-isopropoxy-1-(5-methylpyrimidin-2-yl)propane-2-sulfonamide] | 0.1
COc1cccc(OC)c1-n1c(NS(=O)(=O)[C@@H](C)[C@H](OC)c2ncc(C3=CCOCC3)cn2)nnc1-c1cncc(C)c1 [Example 749.0, (1R,2S)-1-(5-(3,6-dihydro-2H-pyran-4-yl)pyrimidin-2-yl)-N-(4-(2,6-dimethoxyphenyl)-5-(5-methylpyridin-3-yl)-4H-1,2,4-triazol-3-yl)-1-methoxypropane-2-sulfonamide] | 15
COc1cccc(OC)c1-n1c(NS(=O)(=O)[C@@H](C)[C@H](OC)c2ncc(-c3cccnc3)cn2)nnc1-c1cncc(C)c1 [Example 752.0, (1R,2S)—N-(4-(2,6-dimethoxyphenyl)-5-(5-methylpyridin-3-yl)-4H-1,2,4-triazol-3-yl)-1-methoxy-1-(5-(pyridin-3-yl)pyrimidin-2-yl)propane-2-sulfonamide] | 3.6
Cc1cnc([C@@H](C)[C@H](C)S(=O)(=O)Nc2nnc(-c3cncc(C)c3)n2-c2c(OC(F)F)cccc2OC(F)F)nc1 [Example 763.0, (2S,3R)—N-(4-(2,6-bis(difluoromethoxy)phenyl)-5-(5-methylpyridin-3-yl)-4H-1,2,4-triazol-3-yl)-3-(5-methylpyrimidin-2-yl)butane-2-sulfonamide] | 0.71
COc1ncnc(OC)c1-n1c(NS(=O)(=O)[C@@H](C)[C@H](C)c2cnc(C)cn2)nnc1-c1ccccn1 [Example 773.0, (2S,3R)-N-(4-(4,6-dimethoxy-5-pyrimidinyl)-5-(2-pyridinyl)-4H-1,2,4-triazol-3-yl)-3-(5-methyl-2-pyrazinyl)-2-butanesulfonamide] | 14
COc1cccc(OC)c1-n1c(NS(=O)(=O)[C@@H](C)[C@H](C)c2cnc(C)cn2)nnc1-c1ccccn1 [Example 774.0, (2S,3R)-N-(4-(2,6-dimethoxyphenyl)-5-(2-pyridinyl)-4H-1,2,4-triazol-3-yl)-3-(5-methyl-2-pyrazinyl)-2-butanesulfonamide] | 8.2
COc1cccc(OC)c1-n1c(NS(=O)(=O)[C@@H](C)[C@H](C)c2ncc(C)cn2)nnc1-c1ccccn1 [Example 775.0, (2S,3R)-N-(4-(2,6-dimethoxyphenyl)-5-(2-pyridinyl)-4H-1,2,4-triazol-3-yl)-3-(5-methyl-2-pyrimidinyl)-2-butanesulfonamide] | 2.1
COc1ncnc(OC)c1-n1c(NS(=O)(=O)[C@@H](C)[C@H](C)c2ncc(C)cn2)nnc1-c1ccccn1 [Example 776.0, (2S,3R)-N-(4-(4,6-dimethoxy-5-pyrimidinyl)-5-(2-pyridinyl)-4H-1,2,4-triazol-3-yl)-3-(5-methyl-2-pyrimidinyl)-2-butanesulfonamide] | 3.9
COc1ncnc(OC)c1-n1c(NS(=O)(=O)[C@@H](C)[C@@H](OC(C)C)c2ncc(C)cn2)nnc1-c1ccccn1 [Example 777.0, (1S,2S)-N-(4-(4,6-dimethoxy-5-pyrimidinyl)-5-(2-pyridinyl)-4H-1,2,4-triazol-3-yl)-1-(1-methylethoxy)-1-(5-methyl-2-pyrimidinyl)-2-propanesulfonamide] | 2.2
COc1cccc(OC)c1-n1c(NS(=O)(=O)[C@@H](C)[C@@H](OC(C)C)c2ncc(C)cn2)nnc1-c1ccccn1 [Example 778.0, (1S,2S)-N-(4-(2,6-dimethoxyphenyl)-5-(2-pyridinyl)-4H-1,2,4-triazol-3-yl)-1-(1-methylethoxy)-1-(5-methyl-2-pyrimidinyl)-2-propanesulfonamide] | 0.77
COc1ncnc(OC)c1-n1c(NS(=O)(=O)[C@@H](C)[C@H](OC)c2cnc(C)cn2)nnc1-c1ccccn1 [Example 779.0, (1R,2S)-N-(4-(4,6-dimethoxy-5-pyrimidinyl)-5-(2-pyridinyl)-4H-1,2,4-triazol-3-yl)-1-methoxy-1-(5-methyl-2-pyrazinyl)-2-propanesulfonamide] | 17
COc1cccc(OC)c1-n1c(NS(=O)(=O)[C@@H](C)[C@H](OC)c2cnc(C)cn2)nnc1-c1ccccn1 [Example 780.0, (1R,2S)-N-(4-(2,6-dimethoxyphenyl)-5-(2-pyridinyl)-4H-1,2,4-triazol-3-yl)-1-methoxy-1-(5-methyl-2-pyrazinyl)-2-propanesulfonamide] | 8.8
Cc1cnc([C@@H](C)[C@H](C)S(=O)(=O)Nc2nnc(-c3cccc(C)n3)n2-c2c(F)cccc2F)nc1 [Example 783.0, (2S,3R)-N-(4-(2,6-difluorophenyl)-5-(6-methyl-2-pyridinyl)-4H-1,2,4-triazol-3-yl)-3-(5-methyl-2-pyrimidinyl)-2-butanesulfonamide] | 4.2
COc1cccc(-c2nnc(NS(=O)(=O)[C@@H](C)[C@H](C)c3ncc(C)cn3)n2-c2c(F)cccc2F)n1 [Example 784.0, (2S,3R)-N-(4-(2,6-difluorophenyl)-5-(6-methoxy-2-pyridinyl)-4H-1,2,4-triazol-3-yl)-3-(5-methyl-2-pyrimidinyl)-2-butanesulfonamide] | 0.4
Cc1cnc([C@@H](C)[C@H](C)S(=O)(=O)Nc2nnc(-c3ccccn3)n2-c2c(F)cccc2F)nc1 [Example 785.0, (2S,3R)-N-(4-(2,6-difluorophenyl)-5-(2-pyridinyl)-4H-1,2,4-triazol-3-yl)-3-(5-methyl-2-pyrimidinyl)-2-butanesulfonamide] | 4.9
COc1cccc(-c2nnc(NS(=O)(=O)[C@@H](C)[C@H](C)c3ncc(Cl)cn3)n2-c2c(F)cccc2F)n1 [Example 786.0, (2S,3R)-3-(5-chloro-2-pyrimidinyl)-N-(4-(2,6-difluorophenyl)-5-(6-methoxy-2-pyridinyl)-4H-1,2,4-triazol-3-yl)-2-butanesulfonamide] | 0.16
Cc1cccc(-c2nnc(NS(=O)(=O)[C@@H](C)[C@H](C)c3ncc(Cl)cn3)n2-c2c(F)cccc2F)n1 [Example 788.0, (2S,3R)-3-(5-chloro-2-pyrimidinyl)-N-(4-(2,6-difluorophenyl)-5-(6-methyl-2-pyridinyl)-4H-1,2,4-triazol-3-yl)-2-butanesulfonamide] | 0.84
COc1cccc(-c2nnc(NS(=O)(=O)[C@@H](C)[C@H](C)c3cnc(C)cn3)n2-c2c(F)cccc2F)n1 [Example 789.0, (2S,3R)-N-(4-(2,6-difluorophenyl)-5-(6-methoxy-2-pyridinyl)-4H-1,2,4-triazol-3-yl)-3-(5-methyl-2-pyrazinyl)-2-butanesulfonamide] | 1.9
Cc1cnc([C@@H](C)[C@H](C)S(=O)(=O)Nc2nnc(-c3cccc(C)n3)n2-c2c(F)cccc2F)cn1 [Example 790.0, (2S,3R)-N-(4-(2,6-difluorophenyl)-5-(6-methyl-2-pyridinyl)-4H-1,2,4-triazol-3-yl)-3-(5-methyl-2-pyrazinyl)-2-butanesulfonamide] | 20
CNc1cccc(-c2nnc(NS(=O)(=O)[C@@H](C)[C@H](C)c3ncc(C)cn3)n2-c2c(F)cccc2F)n1 [Example 791.0, (2S,3R)-N-(4-(2,6-difluorophenyl)-5-(6-(methylamino)-2-pyridinyl)-4H-1,2,4-triazol-3-yl)-3-(5-methyl-2-pyrimidinyl)-2-butanesulfonamide] | 0.63
COc1cccc(-c2nnc(NS(=O)(=O)[C@H](C)[C@@H](OC)c3ncc(C)cn3)n2-c2c(F)cccc2F)n1 [Example 792.0, (1S,2R)-N-(4-(2,6-difluorophenyl)-5-(6-methoxy-2-pyridinyl)-4H-1,2,4-triazol-3-yl)-1-methoxy-1-(5-methyl-2-pyrimidinyl)-2-propanesulfonamide] | 51
Cc1cnc([C@@H](C)[C@H](C)S(=O)(=O)Nc2nnc(-c3cccnc3)n2-c2c(F)cccc2F)nc1 [Example 793.0, (2S,3R)-N-(4-(2,6-difluorophenyl)-5-(3-pyridinyl)-4H-1,2,4-triazol-3-yl)-3-(5-methyl-2-pyrimidinyl)-2-butanesulfonamide] | 15
COc1cnc([C@@H](C)[C@H](C)S(=O)(=O)Nc2nnc(-c3cncc(C)c3)n2-c2c(F)cccc2F)cn1 [Example 794.0, (2S,3R)-N-(4-(2,6-difluorophenyl)-5-(5-methyl-3-pyridinyl)-4H-1,2,4-triazol-3-yl)-3-(5-methoxy-2-pyrazinyl)-2-butanesulfonamide] | 6.6
Cc1cncc(-c2nnc(NS(=O)(=O)[C@@H](C)[C@H](C)c3cnc(C)cn3)n2-c2c(F)cccc2F)c1 [Example 795.0, (2S,3R)-N-(4-(2,6-difluorophenyl)-5-(5-methyl-3-pyridinyl)-4H-1,2,4-triazol-3-yl)-3-(5-methyl-2-pyrazinyl)-2-butanesulfonamide] | 30
Cc1cncc(-c2nnc(NS(=O)(=O)[C@@H](C)[C@H](C)c3ncc(Cl)cn3)n2-c2c(F)cccc2F)c1 [Example 796.0, (2S,3R)-3-(5-chloro-2-pyrimidinyl)-N-(4-(2,6-difluorophenyl)-5-(5-methyl-3-pyridinyl)-4H-1,2,4-triazol-3-yl)-2-butanesulfonamide] | 1.1
COc1ncnc(OC)c1-n1c(NS(=O)(=O)[C@@H](C)[C@H](C)c2cnc(C)cn2)nnc1-c1cccnc1 [Example 806.0, (2S,3R)-N-(4-(4,6-dimethoxy-5-pyrimidinyl)-5-(3-pyridinyl)-4H-1,2,4-triazol-3-yl)-3-(5-methyl-2-pyrazinyl)-2-butanesulfonamide] | 19
